Measurements taken from patent publication US11492335B2, “Aryl or heteroaryl triazolone derivatives or salts thereof, or pharmaceutical compositions comprising the same” (YUHAN CORPORATION, priority 2018, dated 2022).
Counter-ions that a name gives are not always drawn. Like-named read-outs stand apart in the source and are kept apart here.

Key:
Assay type in all cases: biochemical
[1] = biological target: T1, recombinant human VAP-1 (Homo sapiens, UniProt Q16853); experiment: Activity on recombinant human VAP-1, Amplex Red HRP-coupled hydrogen peroxide assay, benzylamine substrate; details: recombinant human VAP-1, benzylamine substrate, read-out: Inhibitory Activity (IC50, nM) human VAP-1
T1 construct: purchased R&D systems
T1 sequence (Q16853 1-763): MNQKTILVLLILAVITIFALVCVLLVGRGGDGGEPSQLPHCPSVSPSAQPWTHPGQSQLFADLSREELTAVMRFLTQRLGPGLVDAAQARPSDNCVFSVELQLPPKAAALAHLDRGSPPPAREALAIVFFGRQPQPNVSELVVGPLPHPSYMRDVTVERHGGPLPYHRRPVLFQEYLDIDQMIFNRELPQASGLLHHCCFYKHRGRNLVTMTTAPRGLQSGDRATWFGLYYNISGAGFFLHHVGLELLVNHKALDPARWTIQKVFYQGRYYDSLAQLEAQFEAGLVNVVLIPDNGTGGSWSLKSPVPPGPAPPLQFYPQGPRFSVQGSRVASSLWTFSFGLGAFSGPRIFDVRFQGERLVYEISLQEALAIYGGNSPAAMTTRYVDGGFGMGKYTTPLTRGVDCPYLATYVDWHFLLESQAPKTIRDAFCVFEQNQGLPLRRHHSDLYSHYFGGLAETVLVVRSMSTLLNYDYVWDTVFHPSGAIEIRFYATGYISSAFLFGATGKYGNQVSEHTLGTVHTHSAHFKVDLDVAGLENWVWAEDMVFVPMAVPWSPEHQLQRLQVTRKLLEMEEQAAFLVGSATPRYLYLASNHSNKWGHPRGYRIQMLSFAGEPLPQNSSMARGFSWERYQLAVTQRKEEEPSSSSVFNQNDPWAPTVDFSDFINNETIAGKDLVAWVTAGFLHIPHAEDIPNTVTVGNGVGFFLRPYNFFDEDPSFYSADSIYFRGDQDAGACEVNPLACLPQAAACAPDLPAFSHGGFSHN
How it was run: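 Enzyme in 50 mM sodium phosphate pH 7.4 preincubated with compound 30 min at 37 °C, then 1 mM benzylamine, 200 µM Amplex Red and 1 U/mL HRP added. H2O2-derived resorufin fluorescence (ex 544/em 590 nm) followed over 1–2 h; signal-rate decrease versus DMSO control, 8-point curve, four-parameter logistic IC50.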

[2] = biological target: T2, recombinant human DAO (diamine oxidase) (Homo sapiens, UniProt P19801); experiment: Activity on recombinant human DAO, Amplex Red method, 1 mM putrescine substrate; details: recombinant human DAO; for IC50: read-out: Inhibitory Activity (IC50, nM) DAO
T2 construct: purchased R&D systems
T2 sequence (P19801 20-751): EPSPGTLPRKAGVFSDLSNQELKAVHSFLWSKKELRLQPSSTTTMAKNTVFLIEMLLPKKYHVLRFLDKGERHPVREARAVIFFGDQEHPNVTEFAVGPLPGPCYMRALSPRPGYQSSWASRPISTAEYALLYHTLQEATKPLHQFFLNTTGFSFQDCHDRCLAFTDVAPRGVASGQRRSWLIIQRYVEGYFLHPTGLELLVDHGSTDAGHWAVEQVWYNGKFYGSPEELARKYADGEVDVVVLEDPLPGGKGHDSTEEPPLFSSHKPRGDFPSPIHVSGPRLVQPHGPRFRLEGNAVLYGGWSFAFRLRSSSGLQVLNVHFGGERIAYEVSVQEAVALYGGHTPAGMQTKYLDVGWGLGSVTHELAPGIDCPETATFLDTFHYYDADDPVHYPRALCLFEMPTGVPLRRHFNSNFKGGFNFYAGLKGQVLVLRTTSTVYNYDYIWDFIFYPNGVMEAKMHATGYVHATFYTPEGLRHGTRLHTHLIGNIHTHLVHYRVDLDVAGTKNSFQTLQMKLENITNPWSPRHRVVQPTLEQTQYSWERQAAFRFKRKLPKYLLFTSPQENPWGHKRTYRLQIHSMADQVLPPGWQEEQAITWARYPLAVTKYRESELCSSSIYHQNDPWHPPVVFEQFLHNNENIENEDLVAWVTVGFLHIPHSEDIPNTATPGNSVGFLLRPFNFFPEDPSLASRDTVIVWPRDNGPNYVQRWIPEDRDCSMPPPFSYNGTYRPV
How it was run: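 Inhibition of recombinant human DAO (diamine oxidase, R&D systems) was assessed with the Amplex Red Hydrogen Peroxide Assay Kit. Hydrogen peroxide produced from 1 mM putrescine was detected through an HRP-coupled reaction that converts Amplex Red into fluorescent resorufin, read at 544 nm excitation and 590 nm emission. IC50 values came from four-parameter logistic fits in GraphPad Prism.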

[3] = biological target: T3, recombinant human MAO-B (monoamine oxidase-B) (Homo sapiens, UniProt P27338); experiment: Activity on recombinant human MAO-B, Amplex Red method, 1 mM benzylamine substrate; details: read-out: Inhibitory Activity (IC50, nM) MAO-B
T3 construct: purchased Sigma-Aldrich
T3 sequence (P27338 1-520): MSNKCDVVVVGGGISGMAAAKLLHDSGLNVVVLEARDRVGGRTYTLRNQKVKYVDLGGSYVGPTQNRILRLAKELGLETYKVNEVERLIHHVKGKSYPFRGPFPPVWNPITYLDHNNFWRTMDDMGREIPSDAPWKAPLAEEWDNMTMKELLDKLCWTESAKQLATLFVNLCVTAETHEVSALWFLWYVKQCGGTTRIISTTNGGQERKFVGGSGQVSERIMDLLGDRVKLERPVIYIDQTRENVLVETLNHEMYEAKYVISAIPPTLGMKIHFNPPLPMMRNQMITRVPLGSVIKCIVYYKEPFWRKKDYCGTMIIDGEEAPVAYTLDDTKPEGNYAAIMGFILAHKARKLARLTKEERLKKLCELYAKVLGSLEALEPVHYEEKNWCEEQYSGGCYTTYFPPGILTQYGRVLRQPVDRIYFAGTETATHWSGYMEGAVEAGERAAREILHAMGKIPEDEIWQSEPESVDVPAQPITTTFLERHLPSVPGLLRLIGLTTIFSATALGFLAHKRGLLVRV
How it was run: (§1)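 Enzyme preincubated with compound 30 min at 37 °C in 50 mM sodium phosphate pH 7.4, final DMSO below 1%. Substrate was 0.5 mM tyramine for MAO-A and 1 mM benzylamine for MAO-B, with 200 uM Amplex Red and 1 U/mL HRP. H2O2-coupled resorufin fluorescence (ex 544/em 590) followed over 1–2 h; 8-point 4-parameter IC50.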

[4] = biological target: T4, recombinant human MAO-A (monoamine oxidase-A) (Homo sapiens, UniProt P21397); experiment: Activity on recombinant human MAO-A, Amplex Red method, 0.5 mM tyramine substrate; details: read-out: Inhibitory Activity (IC50, nM) MAO-A
T4 construct: purchased Sigma-Aldrich
T4 sequence (P21397 1-527): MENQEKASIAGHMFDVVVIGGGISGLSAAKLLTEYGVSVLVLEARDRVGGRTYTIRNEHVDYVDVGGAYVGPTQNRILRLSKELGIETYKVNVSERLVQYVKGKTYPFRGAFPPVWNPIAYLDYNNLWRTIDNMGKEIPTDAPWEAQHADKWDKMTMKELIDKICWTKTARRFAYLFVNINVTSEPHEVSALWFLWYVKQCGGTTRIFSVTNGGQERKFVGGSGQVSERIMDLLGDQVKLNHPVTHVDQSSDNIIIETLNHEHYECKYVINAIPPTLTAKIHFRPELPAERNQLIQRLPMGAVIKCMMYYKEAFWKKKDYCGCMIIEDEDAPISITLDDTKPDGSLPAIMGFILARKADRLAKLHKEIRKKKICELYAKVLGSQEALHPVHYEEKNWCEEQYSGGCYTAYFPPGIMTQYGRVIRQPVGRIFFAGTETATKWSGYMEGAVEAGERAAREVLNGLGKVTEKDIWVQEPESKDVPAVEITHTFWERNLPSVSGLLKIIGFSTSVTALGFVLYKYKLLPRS
How it was run: as §1

[5] = 1 mM putrescine, * = between 10 and 100 nM, ** = between 300 and 1000 nM

Row | SMILES | IC50 [1] | IC50 ([2]; 1 mM putrescine substrate) | IC50 ([3]; 1 mM benzylamine substrate) | IC50 ([4]; 0.5 mM tyramine substrate) | IC50 ([1]; 30 min preincubation at 37° C.) | IC50 [2, 5] | IC50 ([3]; 1 mM benzylamine) | IC50 ([4]; 0.5 mM tyramine) | Inhibitory Activity (IC50, nM) DAO [2, 5]
1 | NC/C(=C\F)Cn1ncn(-c2ncc(-c3ccc4sc(N)nc4c3)cc2F)c1=O [Example 164, 4-[5-(2-amino-1,3-benzothiazol-5-yl)-3-fluoropyridin-2-yl]-2-[(2E)-2-(aminomethyl)-3-fluoroprop-2-en-1-yl]-2,4-dihydro-3H-1,2,4-triazol-3-one hydrochloride] | 0.25 nM | 1.4 nM | 183 nM | > 100000 nM |  |  |  |  | 
2 | CS(=O)(=O)c1ccc(-c2cnc(-n3cnn(C/C(=C/F)CN)c3=O)cn2)cc1 [Example 217, 2-[(2E)-2-(aminomethyl)-3-fluoroprop-2-en-1-yl]-4-{5-[4-(methylsulfonyl)phenyl]pyrazin-2-yl}-2,4-dihydro-3H-1,2,4-triazol-3-one] | 2.2 nM | < 100 nM | 110 nM | > 100000 nM |  |  |  |  | 
3 | NC/C(=C\F)Cn1ncn(-c2cccc(-c3ccc4cn[nH]c4c3)c2)c1=O [Example 97, 2-[(2E)-2-(aminomethyl)-3-fluoroprop-2-en-1-yl]-4-[3-(1H-indazol-6-yl)phenyl]-2,4-dihydro-3H-1,2,4-triazol-3-one hydrochloride] |  |  |  |  | 0.68 nM | < 30 nM | > 10000 nM | 22500 nM | 
4 | NC/C(=C\F)Cn1ncn(-c2cc(C#Cc3ccccn3)ccn2)c1=O [Example 244, 2-[(2E)-2-(aminomethyl)-3-fluoroprop-2-en-1-yl]-4-[4-(pyridin-2-ylethynyl)pyridin-2-yl]-2,4-dihydro-3H-1,2,4-triazol-3-one hydrochloride] | 0.8 nM | 12 nM | 100 nM | > 100000 nM |  |  |  |  | 
5 | NC/C(=C\F)Cn1ncn(-c2cccc(C#Cc3cnc4c(c3)NC(=O)CO4)n2)c1=O [Example 258, 7-[2-[6-[1-[(E)-2-(aminomethyl)-3-fluoro-allyl]-5-oxo-1,2,4-triazol-4-yl]-2-pyridyl]ethynyl]-1H-pyrido[2,3-b][1,4]oxazin-2-one] | 0.2 nM | 1.3 nM | 59000 nM | > 100000 nM |  |  |  |  | 
6 | CC(=O)Nc1nc(Cc2ccc(-n3cnn(C/C(=C/F)CN)c3=O)cc2)cs1 [Example 235, hydrochloride] | 0.43 nM | < 100 nM | 2580 nM | > 100000 nM |  |  |  |  | 
7 | NC/C(=C/F)Cn1ncn(-c2ncc(Br)cc2F)c1=O [Example 35, 2-[(2Z)-2-(aminomethyl)-3-fluoroprop-2-en-1-yl]-4-(5-bromo-3-fluoropyridin-2-yl)-2,4-dihydro-3H-1,2,4-triazol-3-one hydrochloride] |  |  |  |  | 6.6 nM | 14 nM | 503 nM | 1500 nM | 
8 | CN(C)c1ccc(/C=C/c2cccc(-n3cnn(C/C(=C/F)CN)c3=O)n2)cc1 [Example 239, 2-[(E)-2-(aminomethyl)-3-fluoro-allyl]-4-[6-[(E)-2-[4-(dimethylamino)phenyl]vinyl]-2-pyridyl]-1,2,4-triazol-3-one hydrochloride] | 1.6 nM | 1600 nM | 230 nM | > 100000 nM |  |  |  |  | 
9 | CC(=O)c1ccc(-c2cccc(-n3cnn(C/C(=C/F)CN)c3=O)c2)s1 [Example 49, 4-[3-(5-acetylthiophen-2-yl)phenyl]-2-[(2E)-2-(aminomethyl)-3-fluoroprop-2-en-1-yl]-2,4-dihydro-3H-1,2,4-triazol-3-one hydrochloride] |  |  |  |  | 0.2 nM | 2.1 nM | 800 nM | > 100000 nM | 
10 | Cc1c(-c2ccc3sc(N)nc3c2)cccc1-n1cnn(C/C(=C/F)CN)c1=O [Example 114, 4-[3-(2-amino-1,3-benzothiazol-5-yl)-2-methylphenyl]-2-[(2E)-2-(aminomethyl)-3-fluoroprop-2-en-1-yl]-2,4-dihydro-3H-1,2,4-triazol-3-one] |  |  |  |  | 3.1 nM |  | > 10000 nM | > 100000 nM | no inhibitory
11 | NC/C(=C\F)Cn1ncn(-c2cccc(C#Cc3ccc4c(c3)CCC(=O)N4)n2)c1=O [Example 254, 6-[2-[6-[1-[(E)-2-(aminomethyl)-3-fluoro-allyl]-5-oxo-1,2,4-triazol-4-yl]-2-pyridyl]ethynyl]-3,4-dihydro-1H-quinolin-2-one] | 0.2 nM | 35 nM | > 10000 nM | > 100000 nM |  |  |  |  | 
12 | NC/C(=C\F)Cn1ncn(-c2cccc(C#Cc3ccc(N4CCOCC4)nc3)n2)c1=O [Example 249, 2-[(E)-2-(aminomethyl)-3-fluoro-allyl]-4-[6-[2-(6-morpholino-3-pyridyl)ethynyl]-2-pyridyl]-1,2,4-triazol-3-one] | 0.4 nM | 8 nM | 2000 nM | > 100000 nM |  |  |  |  | 
